In brackets after ≈: the same amount, converted by molar mass.
Columns and labels:
Type in all cases: functional
[1] = system: Mycobacterium tuberculosis; assay: Antituberculosis activity against Mycobacterium tuberculosis H37Rv assessed as growth inhibition after 12 to 28 days by L-J MIC method; details: for MIC: Mycobacterium tuberculosis, H37Rv
Klebsiella pneumoniae [2] = assay: Antimicrobial activity against Klebsiella pneumoniae MTCC 109 assessed as growth inhibition after 24 hr by agar streak dilution method; details: MTCC 109, 24 h
Salmonella typhi [3] = assay: Antimicrobial activity against Salmonella enterica subsp. enterica serovar Typhi MTCC 733 assessed as diameter of growth inhibition zone after 24 hr
Aspergillus clavatus [4] = assay: Antimicrobial activity against Aspergillus clavatus MTCC 1323 assessed as growth inhibition after 48 hr by agar streak dilution method; details: MTCC 1323, 48 h
Candida albicans [5] = assay: Antimicrobial activity against Candida albicans MTCC 183 assessed as growth inhibition after 48 hr by agar streak dilution method; details: MTCC 183, 48 h
Salmonella typhi [6] = assay: Antimicrobial activity against Salmonella enterica subsp. enterica serovar Typhi MTCC 733 assessed as growth inhibition after 24 hr by agar streak dilution method; details: MTCC 733, 24 h
Aspergillus clavatus [7] = assay: Antimicrobial activity against Aspergillus clavatus MTCC 1323 assessed as diameter of growth inhibition zone after 48 hr
Candida albicans [8] = assay: Antimicrobial activity against Candida albicans MTCC 183 assessed as diameter of growth inhibition zone after 48 hr
Shigella flexneri [9] = assay: Antimicrobial activity against Shigella flexneri MTCC1457 assessed as growth inhibition after 24 hr by agar streak dilution method; details: MTCC1457, 24 h
Aspergillus niger [10] = assay: Antimicrobial activity against Aspergillus niger MTCC 282 assessed as diameter of growth inhibition zone after 48 hr
Staphylococcus aureus [11] = assay: Antimicrobial activity against Staphylococcus aureus MTCC 96 assessed as diameter of growth inhibition zone after 24 hr
Bacillus cereus [12] = assay: Antimicrobial activity against Bacillus cereus MTCC 430 assessed as growth inhibition after 24 hr by agar streak dilution method; details: MTCC 430, 24 h
Aspergillus fumigatus [13] = assay: Antimicrobial activity against Aspergillus fumigatus MTCC 343 assessed as diameter of growth inhibition zone after 48 hr
Shigella flexneri [14] = assay: Antimicrobial activity against Shigella flexneri MTCC1457 assessed as diameter of growth inhibition zone after 24 hr
Proteus vulgaris [15] = assay: Antimicrobial activity against Proteus vulgaris MTCC 1771 assessed as diameter of growth inhibition zone after 24 hr
Escherichia coli [16] = assay: Antimicrobial activity against Escherichia coli MTCC 739 assessed as diameter of growth inhibition zone after 24 hr
Pseudomonas aeruginosa [17] = assay: Antimicrobial activity against Pseudomonas aeruginosa MTCC 741 assessed as growth inhibition after 24 hr by agar streak dilution method; details: MTCC 741, 24 h
Pseudomonas aeruginosa [18] = assay: Antimicrobial activity against Pseudomonas aeruginosa MTCC 741 assessed as diameter of growth inhibition zone after 24 hr
Proteus vulgaris [19] = assay: Antimicrobial activity against Proteus vulgaris MTCC 1771 assessed as growth inhibition after 24 hr by agar streak dilution method; details: MTCC 1771, 24 h
Staphylococcus aureus [20] = assay: Antimicrobial activity against Staphylococcus aureus MTCC 96 assessed as growth inhibition after 24 hr by agar streak dilution method; details: MTCC 96, 24 h
Aspergillus fumigatus [21] = assay: Antimicrobial activity against Aspergillus fumigatus MTCC 343 assessed as growth inhibition after 48 hr by agar streak dilution method; details: MTCC 343, 48 h
Escherichia coli [22] = assay: Antimicrobial activity against Escherichia coli MTCC 739 assessed as growth inhibition after 24 hr by agar streak dilution method; details: MTCC 739, 24 h
Aspergillus niger [23] = assay: Antimicrobial activity against Aspergillus niger MTCC 282 assessed as growth inhibition after 48 hr by agar streak dilution method; details: MTCC 282, 48 h
Klebsiella pneumoniae [24] = assay: Antimicrobial activity against Klebsiella pneumoniae MTCC 109 assessed as diameter of growth inhibition zone after 24 hr
Bacillus cereus [25] = assay: Antimicrobial activity against Bacillus cereus MTCC 430 assessed as diameter of growth inhibition zone after 24 hr

| SMILES | growth inhibition (GI) [1] [%] | MIC [1] [µg/mL] | MIC (Klebsiella pneumoniae [2]) [µg/mL] | diameter of the inhibition zone (DIZ) (Salmonella typhi [3]) [mm] | MIC (Aspergillus clavatus [4]) [µg/mL] | MIC (Candida albicans [5]) [µg/mL] | MIC (Salmonella typhi [6]) [µg/mL] | diameter of the inhibition zone (DIZ) (Aspergillus clavatus [7]) [mm] | diameter of the inhibition zone (DIZ) (Candida albicans [8]) [mm] | MIC (Shigella flexneri [9]) [µg/mL] | diameter of the inhibition zone (DIZ) (Aspergillus niger [10]) [mm] | diameter of the inhibition zone (DIZ) (Staphylococcus aureus [11]) [mm] | MIC (Bacillus cereus [12]) [µg/mL] | diameter of the inhibition zone (DIZ) (Aspergillus fumigatus [13]) [mm] | diameter of the inhibition zone (DIZ) (Shigella flexneri [14]) [mm] | diameter of the inhibition zone (DIZ) (Proteus vulgaris [15]) [mm] | diameter of the inhibition zone (DIZ) (Escherichia coli [16]) [mm] | MIC (Pseudomonas aeruginosa [17]) [µg/mL] | diameter of the inhibition zone (DIZ) (Pseudomonas aeruginosa [18]) [mm] | MIC (Proteus vulgaris [19]) [µg/mL] | also measured |
| --- | --- | --- | --- | --- | --- | --- | --- | --- | --- | --- | --- | --- | --- | --- | --- | --- | --- | --- | --- | --- | --- |
| COc1ccc(-c2cc(-c3ccc(Nc4cc(=O)oc5ccccc45)cc3)nc(N)n2)cc1OC | 98 | 50 (≈ 107 µM) | 12.5 (≈ 26.8 µM) | 22 | 12.5 (≈ 26.8 µM) | 6.25 (≈ 13.4 µM) | 12.5 (≈ 26.8 µM) | 23 | 26 | 12.5 (≈ 26.8 µM) | 27 | 27 | 12.5 (≈ 26.8 µM) | 25 | 24 | 21 | 25 | 12.5 (≈ 26.8 µM) | 23 | 25 (≈ 53.6 µM) | MIC (Staphylococcus aureus [20]): 6.25 µg/mL (≈ 13.4 µM); MIC (Aspergillus fumigatus [21]): 12.5 µg/mL (≈ 26.8 µM); MIC (Escherichia coli [22]): 6.25 µg/mL (≈ 13.4 µM); MIC (Aspergillus niger [23]): 6.25 µg/mL (≈ 13.4 µM); diameter of the inhibition zone (DIZ) (Klebsiella pneumoniae [24]): 23 mm; diameter of the inhibition zone (DIZ) (Bacillus cereus [25]): 20 mm |
| CC(=O)N1N=C(c2ccc(Nc3cc(=O)oc4ccccc34)cc2)CC1c1ccc(C)cc1 (stereo not drawn) | 98 | 200 (≈ 457 µM) | 100 (≈ 229 µM) | 14 | 100 (≈ 229 µM) | 100 (≈ 229 µM) | 100 (≈ 229 µM) | 11 | 14 | 50 (≈ 114 µM) | 19 | 16 | 100 (≈ 229 µM) | 15 | 20 | 20 | 12 | 100 (≈ 229 µM) | 16 | 50 (≈ 114 µM) | MIC (Staphylococcus aureus [20]): 100 µg/mL (≈ 229 µM); MIC (Aspergillus fumigatus [21]): 100 µg/mL (≈ 229 µM); MIC (Escherichia coli [22]): 100 µg/mL (≈ 229 µM); MIC (Aspergillus niger [23]): 50 µg/mL (≈ 114 µM); diameter of the inhibition zone (DIZ) (Klebsiella pneumoniae [24]): 13 mm; diameter of the inhibition zone (DIZ) (Bacillus cereus [25]): 16 mm |
| CC(=O)N1N=C(c2ccc(Nc3cc(=O)oc4ccccc34)cc2)CC1c1ccc(Cl)cc1Cl (stereo not drawn) | 96 | 500 (≈ 1020 µM) | 25 (≈ 50.8 µM) | 17 | 100 (≈ 203 µM) | 100 (≈ 203 µM) | 50 (≈ 102 µM) | 16 | 15 | 50 (≈ 102 µM) | 17 | 22 | 12.5 (≈ 25.4 µM) | 19 | 17 | 22 | 18 | 25 (≈ 50.8 µM) | 20 | 12.5 (≈ 25.4 µM) | MIC (Staphylococcus aureus [20]): 12.5 µg/mL (≈ 25.4 µM); MIC (Aspergillus fumigatus [21]): 50 µg/mL (≈ 102 µM); MIC (Escherichia coli [22]): 50 µg/mL (≈ 102 µM); MIC (Aspergillus niger [23]): 100 µg/mL (≈ 203 µM); diameter of the inhibition zone (DIZ) (Klebsiella pneumoniae [24]): 19 mm; diameter of the inhibition zone (DIZ) (Bacillus cereus [25]): 21 mm |
| COc1ccc(-c2cc(-c3ccc(Nc4cc(=O)oc5ccccc45)cc3)nc(N)n2)cc1 | 98 | 62.5 (≈ 143 µM) | 25 (≈ 57.3 µM) | 19 | 12.5 (≈ 28.6 µM) | 25 (≈ 57.3 µM) | 50 (≈ 115 µM) | 23 | 24 | 50 (≈ 115 µM) | 23 | 22 | 12.5 (≈ 28.6 µM) | 20 | 19 | 24 | 22 | 12.5 (≈ 28.6 µM) | 21 | 12.5 (≈ 28.6 µM) | MIC (Staphylococcus aureus [20]): 12.5 µg/mL (≈ 28.6 µM); MIC (Aspergillus fumigatus [21]): 25 µg/mL (≈ 57.3 µM); MIC (Escherichia coli [22]): 25 µg/mL (≈ 57.3 µM); MIC (Aspergillus niger [23]): 12.5 µg/mL (≈ 28.6 µM); diameter of the inhibition zone (DIZ) (Klebsiella pneumoniae [24]): 20 mm; diameter of the inhibition zone (DIZ) (Bacillus cereus [25]): 21 mm |
| CC(=O)N1N=C(c2ccc(Nc3cc(=O)oc4ccccc34)cc2)CC1c1ccc(O)cc1O (stereo not drawn) | 97 | 250 (≈ 549 µM) | 6.25 (≈ 13.7 µM) | 21 | 25 (≈ 54.9 µM) | 50 (≈ 110 µM) | 25 (≈ 54.9 µM) | 22 | 17 | 25 (≈ 54.9 µM) | 21 | 19 | 50 (≈ 110 µM) | 24 | 20 | 22 | 20 | 25 (≈ 54.9 µM) | 22 | 12.5 (≈ 27.4 µM) | MIC (Staphylococcus aureus [20]): 50 µg/mL (≈ 110 µM); MIC (Aspergillus fumigatus [21]): 12.5 µg/mL (≈ 27.4 µM); MIC (Escherichia coli [22]): 25 µg/mL (≈ 54.9 µM); MIC (Aspergillus niger [23]): 25 µg/mL (≈ 54.9 µM); diameter of the inhibition zone (DIZ) (Klebsiella pneumoniae [24]): 23 mm; diameter of the inhibition zone (DIZ) (Bacillus cereus [25]): 20 mm |
| COc1ccc(-c2cc(-c3ccc(Nc4cc(=O)oc5ccccc45)cc3)nc(N)c2C#N)cc1OC | 99 | 12.5 (≈ 25.5 µM) | 3.12 (≈ 6.36 µM) | 27 | 6.25 (≈ 12.7 µM) | 6.25 (≈ 12.7 µM) | 3.12 (≈ 6.36 µM) | 25 | 27 | 6.25 (≈ 12.7 µM) | 27 | 29 | 6.25 (≈ 12.7 µM) | 28 | 27 | 25 | 26 | 6.25 (≈ 12.7 µM) | 25 | 6.25 (≈ 12.7 µM) | MIC (Staphylococcus aureus [20]): 3.12 µg/mL (≈ 6.36 µM); MIC (Aspergillus fumigatus [21]): 3.12 µg/mL (≈ 6.36 µM); MIC (Escherichia coli [22]): 6.25 µg/mL (≈ 12.7 µM); MIC (Aspergillus niger [23]): 6.25 µg/mL (≈ 12.7 µM); diameter of the inhibition zone (DIZ) (Klebsiella pneumoniae [24]): 28 mm; diameter of the inhibition zone (DIZ) (Bacillus cereus [25]): 26 mm |
| Nc1nc(-c2ccc(F)cc2)cc(-c2ccc(Nc3cc(=O)oc4ccccc34)cc2)n1 | 99 | 62.5 (≈ 147 µM) | 3.12 (≈ 7.35 µM) | 23 | 6.25 (≈ 14.7 µM) | 25 (≈ 58.9 µM) | 12.5 (≈ 29.5 µM) | 26 | 20 | 12.5 (≈ 29.5 µM) | 22 | 24 | 12.5 (≈ 29.5 µM) | 27 | 21 | 25 | 25 | 12.5 (≈ 29.5 µM) | 24 | 6.25 (≈ 14.7 µM) | MIC (Staphylococcus aureus [20]): 12.5 µg/mL (≈ 29.5 µM); MIC (Aspergillus fumigatus [21]): 6.25 µg/mL (≈ 14.7 µM); MIC (Escherichia coli [22]): 6.25 µg/mL (≈ 14.7 µM); MIC (Aspergillus niger [23]): 12.5 µg/mL (≈ 29.5 µM); diameter of the inhibition zone (DIZ) (Klebsiella pneumoniae [24]): 28 mm; diameter of the inhibition zone (DIZ) (Bacillus cereus [25]): 23 mm |
| Nc1nc(-c2ccc(Nc3cc(=O)oc4ccccc34)cc2)cc(-c2ccccc2O)n1 | 97 | 250 (≈ 592 µM) | 12.5 (≈ 29.6 µM) | 17 | 6.25 (≈ 14.8 µM) | 50 (≈ 118 µM) | 100 (≈ 237 µM) | 25 | 18 | 25 (≈ 59.2 µM) | 21 | 18 | 50 (≈ 118 µM) | 23 | 20 | 19 | 19 | 50 (≈ 118 µM) | 18 | 50 (≈ 118 µM) | MIC (Staphylococcus aureus [20]): 50 µg/mL (≈ 118 µM); MIC (Aspergillus fumigatus [21]): 12.5 µg/mL (≈ 29.6 µM); MIC (Escherichia coli [22]): 50 µg/mL (≈ 118 µM); MIC (Aspergillus niger [23]): 25 µg/mL (≈ 59.2 µM); diameter of the inhibition zone (DIZ) (Klebsiella pneumoniae [24]): 21 mm; diameter of the inhibition zone (DIZ) (Bacillus cereus [25]): 19 mm |

Reference: ChEMBL document CHEMBL3045446, “In vitro antimicrobial and antimycobacterial activity of some chalcones and their derivatives” (2013)
